Test results as given in patent US20260159520A1, “HETEROBIFUNCTIONAL COMPOUNDS AND METHODS OF TREATING DISEASE” (Halda Therapeutics OpCo, Inc., priority 2022, published 2026).

Columns and labels:
Assay type in all cases: cell-based
[1] = system: T-Rex 293 cell line SC3 cells lacking increased expression of androgen receptor protein; test: Cellular growth inhibition, T-Rex 293 SC3 cells without doxycycline; details: not exposed to doxycycline, 72 hours, CellTiter-Glo 2.0
Method in brief: (§1)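 Doxycycline (10 ng/mL) was either included or omitted to toggle wild-type androgen receptor expression in SC3 cells, a T-Rex 293 clone, grown in stripped-serum, phenol red-free medium. After 72 hours with compound, viable cells were quantified by CellTiter-Glo 2.0.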

VCaP cells = test: Cellular growth inhibition assay for VCaP cells; details: Homo sapiens, 72 hours, CellTiter-Glo 2.0
[2] = system: T-Rex 293 cell line SC3 cells having increased expression of androgen receptor protein; test: Cellular growth inhibition, T-Rex 293 SC3 cells with doxycycline (increased androgen receptor expression); details: with 10 ng/mL doxycycline (increased androgen receptor), 72 hours, CellTiter-Glo 2.0
Method in brief: as §1

T47D cells = test: Cellular growth inhibition assay for T47D cells; details: Homo sapiens, 72 hours, CellTiter-Glo 2.0
Method in brief: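 Growth inhibition as GI50, fitted with four parameters to CellTiter-Glo luminescence after 72 h of compound exposure (0.5% DMSO). Cells were T47D, grown in insulin-supplemented (0.2 units/mL) DMEM with 10% FBS and treated one day post-seeding.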

Row | Structure (SMILES) | GI50 (VCaP cells) [nM] | GI50 (T47D cells) [nM] | GI50 [1] [nM] | GI50 [2] [nM]
1 | CCc1cnn2c(NCc3ccc(OCCCN4CCN(C5CN(c6ncc(C(=O)N[C@H]7C(C)(C)[C@H](Oc8ccc(C#N)c(Cl)c8)C7(C)C)cn6)C5)CC4)nc3)cc(N3CCCC[C@H]3CCO)nc12 [Compound I-60] | < 100 | < 500 | < 100 | < 100
2 | CCc1cnn2c(NCc3ccc(N4CCC(CN5CCC6CN(c7ncc(C(=O)N[C@H]8C(C)(C)[C@H](Oc9ccc(C#N)c(Cl)c9)C8(C)C)cn7)CCC6C5)CC4)nc3)cc(N3CCCC[C@H]3CCO)nc12 (stereo partly drawn) [Compound I-71] | 1000 to 3500 | 1500 to 3000 | > 3500 | < 100
3 | CCc1cnn2c(NCc3ccc(N4CC(OCCN5CC6CN(c7ncc(C(=O)N[C@H]8C(C)(C)[C@H](Oc9ccc(C#N)c(Cl)c9)C8(C)C)cn7)CC6C5)C4)nc3)cc(N3CCCC[C@H]3CCO)nc12 (stereo partly drawn) [Compound I-72] | 100 to 1000 | 1500 to 3000 | 100 to 1000 | 100 to 1000
4 | CCc1cnn2c(NCc3ccc(N4CCC(N5CCN(C6CN(c7ncc(C(=O)N[C@H]8C(C)(C)[C@H](Oc9ccc(C#N)c(Cl)c9)C8(C)C)cn7)C6)CC5)CC4)nc3)cc(N3CCCC[C@H]3CCO)nc12 [Compound I-86] | < 100 | < 500 | < 100 | < 100
5 | CC1(C)[C@H](NC(=O)c2cnc(N3CCC(CN4CCN(CCN5C/C=C/CCOc6cccc(c6)-c6ccnc(n6)Nc6cccc(c6)C5)CC4)CC3)nc2)C(C)(C)[C@H]1Oc1ccc(C#N)c(Cl)c1 [Compound I-94] | > 3500 | > 3000 | 1000 to 3500 | 100 to 1000
6 | Cc1ncc(-c2nc(Nc3ccc(C(=O)N4CC[C@H](N(C)CCOC5CCN(c6ncc(C(=O)N[C@H]7C(C)(C)[C@H](Oc8ccc(C#N)c(Cl)c8)C7(C)C)cn6)CC5)C4)cc3)ncc2F)n1C(C)C [Compound I-95, N-[3-(3-chloro-4-cyano-phenoxy)-2,2,4,4-tetramethyl-cyclobutyl]-2-[4-[2-[[(3S)-1-[4-[[5-fluoro-4-(3-isopropyl-2-methyl-imidazol-4-yl)pyrimidin-2-yl]amino]benzoyl]pyrrolidin-3-yl]-methyl-amino]ethoxy]-1-piperidyl]pyrimidine-5-carboxamide] | 1000 to 3500 | 500 to 1500 | 1000 to 3500 | 1000 to 3500
7 | Cc1ncc(-c2nc(Nc3ccc(C(=O)N4CC[C@H](N(C)CCOCCOCCOC5CCN(c6ncc(C(=O)N[C@H]7C(C)(C)[C@H](Oc8ccc(C#N)c(Cl)c8)C7(C)C)cn6)CC5)C4)cc3)ncc2F)n1C(C)C [Compound I-96] | 1000 to 3500 | 1500 to 3000 | 1000 to 3500 | 100 to 1000

Continued, in another order:

Row | GI50 (VCaP cells) [nM] | GI50 (T47D cells) [nM] | Structure (SMILES) | GI50 [1] [nM] | GI50 [2] [nM]
8 | < 100 | < 500 | CCc1cnn2c(NCc3ccc(OCCCN4CCN(CC5CCN(c6ccc(C(=O)N[C@H]7C(C)(C)[C@H](Oc8ccc(C#N)c(Cl)c8)C7(C)C)cn6)CC5)CC4)nc3)cc(N3CCCC[C@@H]3CCO)nc12 [Compound I-55, N-((1r,3r)-3-(3-chloro-4-cyanophenoxy)-2,2,4,4-tetramethylcyclobutyl)-6-(4-((4-(3-((5-(((3-ethyl-5-((R)-2-(2-hydroxyethyl)piperidin-1-yl)pyrazolo[1,5-a]pyrimidin-7-yl)amino)methyl)pyridin-2-yl)oxy)propyl)piperazin-1-yl)methyl)piperidin-1-yl)nicotinamide] | 100 to 1000 | < 100
9 | < 100 | < 500 | CCc1cnn2c(NCc3ccc(OCCCN4CCC(C5CN(c6ncc(C(=O)N[C@H]7C(C)(C)[C@H](Oc8ccc(C#N)c(Cl)c8)C7(C)C)cn6)C5)CC4)nc3)cc(N3CCCC[C@H]3CCO)nc12 [Compound I-61] | 100 to 1000 | < 100
10 | < 100 | < 500 | CC(C)n1cc(-c2ccnc3[nH]c(C4CCN(CCN5CCN(CC6CCN(c7ncc(C(=O)NC8C(C)(C)C(Oc9ccc(C#N)c(Cl)c9)C8(C)C)cn7)CC6)CC5)CC4)cc23)ccc1=O (stereo not drawn) [Compound I-74, N-[3-(3-chloro-4-cyano-phenoxy)-2,2,4,4-tetramethyl-cyclobutyl]-2-[4-[[4-[2-[4-[4-(1-isopropyl-6-oxo-3-pyridyl)-1H-pyrrolo [2,3-b]pyridin-2-yl]-1-piperidyl]ethyl]piperazin-1-yl]methyl]-1-piperidyl]pyrimidine-5-carboxamide] | 100 to 1000 | < 100
11 | 1000 to 3500 | 1500 to 3000 | Cc1ncc(-c2nc(Nc3ccc(C(=O)N4CC[C@H](N(C)CCOCCOCCOCCOCCOC5CCN(c6ncc(C(=O)N[C@H]7C(C)(C)[C@H](Oc8ccc(C#N)c(Cl)c8)C7(C)C)cn6)CC5)C4)cc3)ncc2F)n1C(C)C [Compound I-97] | 1000 to 3500 | 1000 to 3500
12 | < 100 | < 500 | CCc1cnn2c(NCc3ccc(OCCCN4CCN(CC5CCN(c6ccc(C(=O)N[C@H]7C(C)(C)[C@H](Oc8ccc(C#N)c(Cl)c8)C7(C)C)cc6)CC5)CC4)nc3)cc(N3CCCC[C@@H]3CCO)nc12 [II-1, N-((1r,3r)-3-(3-chloro-4-cyanophenoxy)-2,2,4,4-tetramethylcyclobutyl)-4-(4-((4-(3-((5-(((3-ethyl-5-((R)-2-(2-hydroxyethyl)piperidin-1-yl)pyrazolo[1,5-a]pyrimidin-7-yl)amino)methyl)pyridin-2-yl)oxy)propyl)piperazin-1-yl)methyl)piperidin-1-yl)benzamide] | 100 to 1000 | < 100
